Test results taken from the supplement of paper PMC11061612.

Legend:
Assay in all cases: Bliss excess, mean over the matrix (fraction); higher = more synergy
[1] = system: SNU-175 (Colorectal Carcinoma)
Procedure, shortened: (§1)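 Cell lines grown in DMEM/F12 or RPMI with 10% FBS were plated in 1536-well plates and held 24 hours at 37°C, 5% CO2 before 72 hours of exposure to two-drug dose matrices, with DMSO typically at 0.2%. CellTiter-Glo 2.0 luminescence gave viability, which was converted to inhibition. Vehicle wells were set to 0 and blank wells to 1. Combination Emax is the second-highest inhibition in the matrix, and Bliss excess is the observed combination effect minus the expected EA + EB − EA·EB, where EA and EB are the single-agent effects.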

[2] = system: COLO-684 (Endometrial Carcinoma)
Procedure, shortened: as §1

[3] = system: HSC-3 (Oral Cavity Carcinoma)
Procedure, shortened: as §1

[4] = system: RERF-LC-KJ (Lung Adenocarcinoma)
Procedure, shortened: as §1

[5] = system: PC-14 (Lung Adenocarcinoma)
Procedure, shortened: as §1

[6] = system: AN3-CA (Endometrial Carcinoma)
Procedure, shortened: as §1

KYM-1 (Rhabdomyosarcoma) = system: KYM-1 (Rhabdomyosarcoma)
Procedure, shortened: as §1

RT4 (Bladder Carcinoma) = system: RT4 (Bladder Carcinoma)
Procedure, shortened: as §1

[7] = system: BALL-1 (B-Lymphoblastic Leukemia)
Procedure, shortened: as §1

[8] = system: KYSE-70 (Esophageal Squamous Cell Carcinoma)
Procedure, shortened: as §1

[9] = system: HTC-C3 (Thyroid Gland Carcinoma)
Procedure, shortened: as §1

[10] = system: RPMI-8866 (Chronic Myelogenous Leukemia)
Procedure, shortened: as §1

[11] = system: EB-3 (Burkitt's Lymphoma)
Procedure, shortened: as §1

[12] = system: NCI-H810 (Non-Small Cell Lung Carcinoma)
Procedure, shortened: as §1

[13] = system: OVTOKO (Ovarian Carcinoma)
Procedure, shortened: as §1

[14] = system: SJRH30 (Rhabdomyosarcoma)
Procedure, shortened: as §1

[15] = system: AsPC-1 (Pancreatic Carcinoma)
Procedure, shortened: as §1

[16] = system: NCI-H1155 (Non-Small Cell Lung Carcinoma)
Procedure, shortened: as §1

[17] = system: NCI-H1755 (Lung Adenocarcinoma)
Procedure, shortened: as §1

[18] = system: OV-90 (Ovarian Carcinoma)
Procedure, shortened: as §1

SMILES | Bliss excess [1] | Bliss excess [2] | Bliss excess [3] | Bliss excess [4] | Bliss excess [5] | Bliss excess [6] | Bliss excess (KYM-1 (Rhabdomyosarcoma)) | Bliss excess (RT4 (Bladder Carcinoma)) | Bliss excess [7] | Bliss excess [8] | Bliss excess [9] | Bliss excess [10] | Bliss excess [11] | Bliss excess [12] | Bliss excess [13] | Bliss excess [14] | Bliss excess [15] | Bliss excess [16] | Bliss excess [17] | Bliss excess [18]
CN(CCO)CC[C@H](CSc1ccccc1)Nc1ccc(S(=O)(=O)NC(=O)c2ccc(N3CCC([C@@H](O)c4ccccc4-c4ccc(Cl)cc4)CC3)cc2)cc1S(=O)(=O)C(F)(F)F [AZD4320] + C1CN(CCC1(C(=O)N[C@@H](CCO)C2=CC=C(C=C2)Cl)N)C3=NC=NC4=C3C=CN4 [Capivasertib] (first compound max 1 µM, 7x7, partner max 3 µM) | -0.0205 | -0.0157 | -0.037 | -0.0282 | -0.03 | -0.0186 | -0.021 | -0.0716 | 0.0012 | -0.0273 | -0.0498 | -0.0553 | -0.0462 | -0.0595 | -0.0381 | 0.0085 | -0.0665 | 0.0147 | -0.0221 | -0.0635
NC1(C(=O)N[C@@H](CCO)c2ccc(Cl)cc2)CCN(c2ncnc3[nH]ccc23)CC1 [Capivasertib] + C[C@@H]1COCCN1C2=NC(=NC(=C2)C3(CC3)[S@](=N)(=O)C)C4=C5C=CNC5=NC=C4 [AZD6738] (first compound max 10 µM, 7x7, partner max 10 µM) | -0.0099 | -0.0262 | -0.0346 | -0.0722 | -0.0355 | -0.0526 | -0.0693 | -0.022 | -0.0066 | -0.0691 | -0.0323 | -0.0323 | -0.0579 | -0.0575 | -0.0084 | -0.0324 | -0.0359 | -0.0362 | -0.0244 | -0.0159
CN(CCO)CC[C@H](CSc1ccccc1)Nc1ccc(S(=O)(=O)NC(=O)c2ccc(N3CCC([C@@H](O)c4ccccc4-c4ccc(Cl)cc4)CC3)cc2)cc1S(=O)(=O)C(F)(F)F [AZD4320] + C[C@@H]1COCCN1C2=NC(=NC(=C2)C3(CC3)[S@](=N)(=O)C)C4=C5C=CNC5=NC=C4 [AZD6738] (first compound max 1 µM, 7x7, partner max 10 µM) | 0.0023 | -0.0589 | -0.054 | -0.0377 | -0.0133 | -0.0091 | 0.0286 | 0.0064 | 0.0096 | -0.0096 | -0.0305 | 0.0527 | -0.0287 | -0.0762 | -0.112 | 0.0213 | -0.109 | 0.0351 | -0.0214 | -0.0354
COc1nnc2ccc(N3CCC(c4ccc(OCCN5CCN(C)C(=O)[C@H]5C)cc4)CC3)nn12 [AZD5153] + Cn1cnc2c(F)c(Nc3ccc(Br)cc3Cl)c(C(=O)NOCCO)cc21 [Selumetinib] (first compound max 1 µM, 7x7, partner max 10 µM) | -0.0007 | -0.0134 | -0.0211 | -0.113 | 0.007 | -0.0484 | 0.0086 | 0.0073 | -0.0274 | 0.0097 | -0.0464 | -0.0233 | -0.0591 | -0.0224 | -0.0591 | 0.0152 | -0.0238 | -0.035 | 0.0053 | -0.0203
